In the supplement of paper PMC10627819:

Experiments:
[1] = tested on: S. pneumoniae D39V; assay: fitness (endpoint OD595 vs no drug) (fraction); higher = more growth
Method in brief: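 Each well of a 384-well plate received 30 µl of culture at OD595 0.01, or 55 µl for S. pneumoniae. TSB, LB Lennox or CY served as media at 37 °C. OD595 was taken every 30 min for 14 h and corrected by subtracting the first reading. Fitness is the optical density at stationary-phase entry divided by the robust mean of no-drug controls, capped at 1.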

[2] = tested on: B. subtilis 168; assay: Bliss interaction score (quartile over a dose matrix) (fitness difference); higher = more antagonism (negative = synergy)
Method in brief: (§1)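 Quartiles of the Bliss score were taken over technical, biological and donor/recipient replicates. That score is observed fitness minus the product of the single-drug fitness values, which were inferred from combination data. Fitness itself is OD595 at entry into stationary phase divided by the plate's robust no-drug mean, with a cap at 1.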

[3] = tested on: S. aureus DSM 20231; assay: as above
Method in brief: as §1

[4] = tested on: S. aureus Newman; assay: as above
Method in brief: as §1

[5] = tested on: S. pneumoniae D39V; assay: as above
Method in brief: as §1
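Wherever Bliss interaction score (quartile over a dose matrix) is given: first quartile when negative (synergy) and third quartile when positive (antagonism).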

CC[C@H]1OC(=O)[C@H](C)[C@@H](O[C@H]2C[C@@](C)(OC)[C@@H](O)[C@H](C)O2)[C@H](C)[C@@H](O[C@@H]2O[C@H](C)C[C@H](N(C)C)[C@H]2O)[C@](C)(OC)C[C@@H](C)C(=O)[C@H](C)[C@@H](O)[C@]1(C)O [Clarithromycin] + CN[C@@H]1[C@H](O[C@H]2[C@H](O[C@H]3[C@H](O)[C@@H](O)[C@H](N=C(N)N)[C@@H](O)[C@@H]3N=C(N)N)O[C@@H](C)[C@]2(O)C=O)O[C@@H](CO)[C@H](O)[C@H]1O [Streptomycin]
fitness, [1], one replicate
Conditions | first compound 0.007812 µg/mL | first compound 0.01562 µg/mL | first compound 0.03125 µg/mL | first compound 0.0625 µg/mL | first compound 0.125 µg/mL | first compound 0.25 µg/mL
partner 2 µg/mL | 0.857 | 0.802 | 0.663 | 0.68 | 0.318 | 0.129
partner 4 µg/mL | 0.866 | 0.799 | 0.694 | – | – | –
partner 8 µg/mL | 0.845 | 0.793 | 0.651 | – | – | –
partner 16 µg/mL | – | – | – | 0.478 | 0.184 | 0.0864

fitness, [1]
Conditions | first compound 0.0625 µg/mL | first compound 0.07 µg/mL | first compound 0.125 µg/mL | first compound 0.14 µg/mL | first compound 0.25 µg/mL | first compound 0.28 µg/mL
partner 2 µg/mL | – | 0.117 | – | 0.0741 | – | 0.0426
partner 4 µg/mL | 0.623 | 0.103 | 0.3 | 0.0646 | 0.142 | 0.0455
partner 8 µg/mL | 0.594 | 0.154 | 0.312 | 0.0691 | 0.107 | 0.0723

Conditions | Bliss interaction score
[2] | 0.0553
[3] | 0.0696
[4] | -0.0521
[5] | -0.0538

CC[C@H]1OC(=O)[C@H](C)[C@@H](O[C@H]2C[C@@](C)(OC)[C@@H](O)[C@H](C)O2)[C@H](C)[C@@H](O[C@@H]2O[C@H](C)C[C@H](N(C)C)[C@H]2O)[C@](C)(OC)C[C@@H](C)C(=O)[C@H](C)[C@@H](O)[C@]1(C)O [Clarithromycin] + CN[C@H](CC(C)C)C(=O)N[C@H]1C(=O)N[C@@H](CC(N)=O)C(=O)N[C@H]2C(=O)N[C@H]3C(=O)N[C@H](C(=O)N[C@H](C(=O)O)c4cc(O)cc(O)c4-c4cc3ccc4O)[C@H](O)c3ccc(c(Cl)c3)Oc3cc2cc(c3O[C@@H]2O[C@H](CO)[C@@H](O)[C@H](O)[C@H]2O[C@H]2C[C@](C)(N)[C@H](O)[C@H](C)O2)Oc2ccc(cc2Cl)[C@H]1O [Vancomycin]
fitness, [1], one replicate
Conditions | first compound 0.007812 µg/mL | first compound 0.01562 µg/mL | first compound 0.03125 µg/mL
partner 0.125 µg/mL | 0.835 | 0.803 | 0.699
partner 0.25 µg/mL | 0.333 | 0.0993 | 0.126
partner 0.5 µg/mL | 0.0664 | 0.0774 | 0.0781

fitness, [1]
Conditions | first compound 0.0625 µg/mL | first compound 0.07 µg/mL | first compound 0.125 µg/mL | first compound 0.14 µg/mL | first compound 0.25 µg/mL | first compound 0.28 µg/mL
partner 0.03125 µg/mL | 0.652 | – | 0.381 | – | 0.149 | –
partner 0.0625 µg/mL | 0.577 | – | 0.321 | – | 0.116 | –
partner 0.125 µg/mL | – | 0.101 | 0.281 | 0.0727 | 0.106 | 0.0814
partner 0.25 µg/mL | – | 0.0516 | – | 0.0525 | – | 0.0738
partner 0.5 µg/mL | – | 0.0749 | – | 0.0887 | – | 0.0893

Conditions | Bliss interaction score
[2] | 0.038
[3] | 0.054
[4] | 0.0579
[5] | -0.0529

CC[C@H]1OC(=O)[C@H](C)[C@@H](O[C@H]2C[C@@](C)(OC)[C@@H](O)[C@H](C)O2)[C@H](C)[C@@H](O[C@@H]2O[C@H](C)C[C@H](N(C)C)[C@H]2O)[C@](C)(OC)C[C@@H](C)C(=O)[C@H](C)[C@@H](O)[C@]1(C)O [Clarithromycin] + CO[C@H]1/C=C/O[C@@]2(C)Oc3c(C)c(O)c4c(O)c(c(/C=N/N5CCN(C)CC5)c(O)c4c3C2=O)NC(=O)/C(C)=C\C=C\[C@H](C)[C@H](O)[C@@H](C)[C@@H](O)[C@@H](C)[C@H](OC(C)=O)[C@@H]1C [Rifampicin]
fitness, [1], one replicate
Conditions | first compound 0.007812 µg/mL | first compound 0.01562 µg/mL | first compound 0.03125 µg/mL | first compound 0.0625 µg/mL | first compound 0.125 µg/mL | first compound 0.25 µg/mL
partner 0.025 µg/mL | – | – | – | 0.395 | 0.245 | 0.155
partner 0.05 µg/mL | 0.647 | 0.466 | 0.293 | – | – | –
partner 0.1 µg/mL | 0.262 | 0.213 | 0.219 | – | – | –
partner 0.2 µg/mL | 0.122 | 0.15 | 0.196 | 0 | 0 | 0

fitness, [1]
Conditions | first compound 0.0625 µg/mL | first compound 0.07 µg/mL | first compound 0.125 µg/mL | first compound 0.14 µg/mL | first compound 0.25 µg/mL | first compound 0.28 µg/mL
partner 0.025 µg/mL | – | 0.161 | – | 0.109 | – | 0.121
partner 0.05 µg/mL | 0.362 | 0.17 | 0.215 | 0.164 | 0.108 | 0.102
partner 0.1 µg/mL | 0.177 | 0.118 | 0.119 | 0.0954 | 0.114 | 0.138

Conditions | Bliss interaction score
[2] | 0.0788
[3] | 0.0272
[4] | 0.0434
[5] | 0.0654
